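Test compounds were applied to cells in 96-well plates for 48 hours at 5 doses. TGI: total growth inhibition.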

The test system of one assay is SW-620 colon. Put plainly: NCI anticancer screen, dose series, 48 h.
The compound `Cc1c(C)n(-c2ccccc2)c2nc(S(C)(=O)=O)nc(S(C)(=O)=O)c12` gave a TGI of 2.9 µM.

In turn, `CC(=O)O[C@H]1CC[C@@]2(C)C(=CC[C@@H]3[C@@H]2CC[C@]2(C)NC(=O)/C(=C\c4ccccc4)C[C@@H]32)C1` returned a TGI of 41.9 µM.

In turn, `O=C(CCc1cc(O)ccc1O)OCCc1ccccc1` came in with a TGI of 42.2 µM.

As for `O=C(N[C@@H](c1ccccc1)[C@@H](O)C(=O)OCc1ccc([N+](=O)[O-])cc1)c1ccccc1`, the TGI is over 100 µM.

The compound `Cc1c(O)c(OC2OC(CO)C(O)C(O)C2O)cc2c1CC[C@@H]1C2(C)C(=O)C[C@]2(C)[C@@H]([C@@](C)(O)C(=O)CCC(C)(C)O)[C@H](O)C[C@@]12C` (stereo not given in full) gave a TGI of over 100 µM.

`O=c1oc2ccccc2cc1-c1cn2ccccc2n1` registered a TGI of 31.6 µM.

On to `Cn1c(=O)oc2cc(C(O)CN3CCN(Cc4ccccn4)CC3)c(Cl)cc21` (stereo not given), for which the TGI is over 100 µM.

The compound `O=C(NCCCl)N(O)C(=O)Nc1ccccc1` had a TGI of over 100 µM.

Take `COC(=O)[C@H](Cc1c[nH]c2ccccc12)NC(=O)c1ccc(CNC(=O)/C(C)=C/c2ccccc2)cc1`: the TGI is over 100 µM.

`C/C(=N/NC(=S)Nc1ccc(Cl)cc1)c1cccc(/C(C)=N\NC(=S)Nc2ccc(Cl)cc2)n1` yielded a TGI of over 100 µM.

As for `COC(=O)C1(C(=O)OC)C/C(C)=C(/C)SCCCS1`, the TGI is over 100 µM.

`CC1(C)CC(=O)C(C=NC(=O)c2ccncc2)=C(O)C1` had a TGI of over 100 µM.

On to `O=C(O/C=C\OC1CCCC1(c1ccccc1)c1ccccc1)c1ccccc1` (stereo not given), for which the TGI amounted to 11.3 µM.

The subject of another assay is SF-268 CNS. As to the kind of experiment: NCI anticancer screen, dose series, 48 h.
The compound `Cc1c(C)n(-c2ccccc2)c2nc(S(C)(=O)=O)nc(S(C)(=O)=O)c12` registered a TGI of 31.1 µM.

`CC(=O)O[C@H]1CC[C@@]2(C)C(=CC[C@@H]3[C@@H]2CC[C@]2(C)NC(=O)/C(=C\c4ccccc4)C[C@@H]32)C1` yielded a TGI of 37.9 µM.

For `O=C(CCc1cc(O)ccc1O)OCCc1ccccc1`, the TGI was over 50.5 µM.

Consider `O=C(N[C@@H](c1ccccc1)[C@@H](O)C(=O)OCc1ccc([N+](=O)[O-])cc1)c1ccccc1`, for which the TGI is over 100 µM.

`Cc1c(O)c(OC2OC(CO)C(O)C(O)C2O)cc2c1CC[C@@H]1C2(C)C(=O)C[C@]2(C)[C@@H]([C@@](C)(O)C(=O)CCC(C)(C)O)[C@H](O)C[C@@]12C` (stereo not given in full) returned a TGI of over 100 µM.

As for `O=c1oc2ccccc2cc1-c1cn2ccccc2n1`, the TGI was 13.2 µM.

Turning to `Cn1c(=O)oc2cc(C(O)CN3CCN(Cc4ccccn4)CC3)c(Cl)cc21` (stereo not given), the TGI was over 100 µM.

`O=C(NCCCl)N(O)C(=O)Nc1ccccc1` had a TGI of over 100 µM.

As for `COC(=O)[C@H](Cc1c[nH]c2ccccc12)NC(=O)c1ccc(CNC(=O)/C(C)=C/c2ccccc2)cc1`, the TGI was over 100 µM.

In turn, `C/C(=N/NC(=S)Nc1ccc(Cl)cc1)c1cccc(/C(C)=N\NC(=S)Nc2ccc(Cl)cc2)n1` registered a TGI of 58.1 µM.

`COC(=O)C1(C(=O)OC)C/C(C)=C(/C)SCCCS1` registered a TGI of over 100 µM.

In turn, `CC1(C)CC(=O)C(C=NC(=O)c2ccncc2)=C(O)C1` showed a TGI of over 100 µM.

`O=C(O/C=C\OC1CCCC1(c1ccccc1)c1ccccc1)c1ccccc1` (stereo not given) showed a TGI of 14.1 µM.

The test system of another assay is MCF7 breast. Put plainly: NCI anticancer screen, dose series, 48 h.
Turning to `Cc1c(C)n(-c2ccccc2)c2nc(S(C)(=O)=O)nc(S(C)(=O)=O)c12`, the TGI was 2.79 µM.

Compound `CC(=O)O[C@H]1CC[C@@]2(C)C(=CC[C@@H]3[C@@H]2CC[C@]2(C)NC(=O)/C(=C\c4ccccc4)C[C@@H]32)C1` gave a TGI of 59.8 µM.

Compound `O=C(CCc1cc(O)ccc1O)OCCc1ccccc1` returned a TGI of 57.3 µM.

The compound `O=C(N[C@@H](c1ccccc1)[C@@H](O)C(=O)OCc1ccc([N+](=O)[O-])cc1)c1ccccc1` gave a TGI of over 100 µM.

On to `Cc1c(O)c(OC2OC(CO)C(O)C(O)C2O)cc2c1CC[C@@H]1C2(C)C(=O)C[C@]2(C)[C@@H]([C@@](C)(O)C(=O)CCC(C)(C)O)[C@H](O)C[C@@]12C` (stereo not given in full), for which the TGI was over 100 µM.

`O=c1oc2ccccc2cc1-c1cn2ccccc2n1` had a TGI of 30 µM.

`Cn1c(=O)oc2cc(C(O)CN3CCN(Cc4ccccn4)CC3)c(Cl)cc21` (stereo not given) returned a TGI of over 100 µM.

In turn, `O=C(NCCCl)N(O)C(=O)Nc1ccccc1` yielded a TGI of over 100 µM.

The compound `COC(=O)[C@H](Cc1c[nH]c2ccccc12)NC(=O)c1ccc(CNC(=O)/C(C)=C/c2ccccc2)cc1` had a TGI of over 100 µM.

On to `C/C(=N/NC(=S)Nc1ccc(Cl)cc1)c1cccc(/C(C)=N\NC(=S)Nc2ccc(Cl)cc2)n1`, for which the TGI was found to be 9.25 µM.

In the case of `COC(=O)C1(C(=O)OC)C/C(C)=C(/C)SCCCS1`, the TGI is over 100 µM.

`CC1(C)CC(=O)C(C=NC(=O)c2ccncc2)=C(O)C1` gave a TGI of over 100 µM.

Compound `O=C(O/C=C\OC1CCCC1(c1ccccc1)c1ccccc1)c1ccccc1` (stereo not given) gave a TGI of 6.67 µM.

A further assay concerns KM12 colon. As to the kind of experiment: NCI anticancer screen, dose series, 48 h.
In the case of `Cc1c(C)n(-c2ccccc2)c2nc(S(C)(=O)=O)nc(S(C)(=O)=O)c12`, the TGI was 28.2 µM.

As for `CC(=O)O[C@H]1CC[C@@]2(C)C(=CC[C@@H]3[C@@H]2CC[C@]2(C)NC(=O)/C(=C\c4ccccc4)C[C@@H]32)C1`, the TGI worked out at 42.7 µM.

In the case of `O=C(CCc1cc(O)ccc1O)OCCc1ccccc1`, the TGI was over 80.6 µM.

On to `O=C(N[C@@H](c1ccccc1)[C@@H](O)C(=O)OCc1ccc([N+](=O)[O-])cc1)c1ccccc1`, for which the TGI was over 100 µM.

Consider `Cc1c(O)c(OC2OC(CO)C(O)C(O)C2O)cc2c1CC[C@@H]1C2(C)C(=O)C[C@]2(C)[C@@H]([C@@](C)(O)C(=O)CCC(C)(C)O)[C@H](O)C[C@@]12C` (stereo not given in full), for which the TGI is over 100 µM.

On to `O=c1oc2ccccc2cc1-c1cn2ccccc2n1`, for which the TGI came to 37.2 µM.

`Cn1c(=O)oc2cc(C(O)CN3CCN(Cc4ccccn4)CC3)c(Cl)cc21` (stereo not given): the TGI is over 100 µM.

For the compound `O=C(NCCCl)N(O)C(=O)Nc1ccccc1`, the TGI is over 100 µM.

`COC(=O)[C@H](Cc1c[nH]c2ccccc12)NC(=O)c1ccc(CNC(=O)/C(C)=C/c2ccccc2)cc1` gave a TGI of over 100 µM.

The compound `C/C(=N/NC(=S)Nc1ccc(Cl)cc1)c1cccc(/C(C)=N\NC(=S)Nc2ccc(Cl)cc2)n1` gave a TGI of over 100 µM.

The compound `COC(=O)C1(C(=O)OC)C/C(C)=C(/C)SCCCS1` displayed a TGI of over 100 µM.

`CC1(C)CC(=O)C(C=NC(=O)c2ccncc2)=C(O)C1` came in with a TGI of over 100 µM.

In the case of `O=C(O/C=C\OC1CCCC1(c1ccccc1)c1ccccc1)c1ccccc1` (stereo not given), the TGI amounted to 33.1 µM.

A further assay relates to HCC-2998 colon. As to the kind of experiment: NCI anticancer screen, dose series, 48 h.
With `Cc1c(C)n(-c2ccccc2)c2nc(S(C)(=O)=O)nc(S(C)(=O)=O)c12`, the TGI was 41.2 µM.

The compound `CC(=O)O[C@H]1CC[C@@]2(C)C(=CC[C@@H]3[C@@H]2CC[C@]2(C)NC(=O)/C(=C\c4ccccc4)C[C@@H]32)C1` returned a TGI of 62 µM.

In the case of `O=C(CCc1cc(O)ccc1O)OCCc1ccccc1`, the TGI was over 80.7 µM.

`O=C(N[C@@H](c1ccccc1)[C@@H](O)C(=O)OCc1ccc([N+](=O)[O-])cc1)c1ccccc1` yielded a TGI of over 100 µM.

`Cc1c(O)c(OC2OC(CO)C(O)C(O)C2O)cc2c1CC[C@@H]1C2(C)C(=O)C[C@]2(C)[C@@H]([C@@](C)(O)C(=O)CCC(C)(C)O)[C@H](O)C[C@@]12C` (stereo not given in full): the TGI was over 100 µM.

Regarding `O=c1oc2ccccc2cc1-c1cn2ccccc2n1`, the TGI was 39.4 µM.

Regarding `Cn1c(=O)oc2cc(C(O)CN3CCN(Cc4ccccn4)CC3)c(Cl)cc21` (stereo not given), the TGI was over 100 µM.

`O=C(NCCCl)N(O)C(=O)Nc1ccccc1` came in with a TGI of over 100 µM.

For `COC(=O)[C@H](Cc1c[nH]c2ccccc12)NC(=O)c1ccc(CNC(=O)/C(C)=C/c2ccccc2)cc1`, the TGI was 73 µM.

In turn, `C/C(=N/NC(=S)Nc1ccc(Cl)cc1)c1cccc(/C(C)=N\NC(=S)Nc2ccc(Cl)cc2)n1` had a TGI of over 100 µM.

The compound `COC(=O)C1(C(=O)OC)C/C(C)=C(/C)SCCCS1` had a TGI of over 100 µM.

With `CC1(C)CC(=O)C(C=NC(=O)c2ccncc2)=C(O)C1`, the TGI was over 100 µM.

With `O=C(O/C=C\OC1CCCC1(c1ccccc1)c1ccccc1)c1ccccc1` (stereo not given), the TGI is over 49.4 µM.

The record behind these values is PubChem BioAssay (NCI).
